The record followed here is PubChem BioAssay (NCI).

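Cells were grown in 96-well plates and exposed to each compound for 48 hours at five concentrations; endpoints were interpolated linearly between bracketing concentrations, or set to the highest concentration if not reached. GI50 is the concentration that inhibits growth by half. TGI denotes the concentration required for complete inhibition of growth.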

The first assay has as its system OVCAR-5 ovarian. Kind of assay: NCI anticancer screen, dose series, 48 h.
`CCOP(=O)(OCC)C(c1ccc(F)cc1)N(C(=O)NC(F)(F)F)c1ccc(OC)cc1` (stereo not drawn) yielded a TGI greater than 100 µM.
`CCOC(=O)c1c(C)nc2c3ccccc3c(C#N)c(C)n12` gave a TGI greater than 100 µM.
On the same count and under the same terms, as for `O=C(O)CCC(=O)OC1N=C(c2ccccc2Cl)c2cc([N+](=O)[O-])ccc2NC1=O` (stereo not drawn), the figure is greater than 100 µM.
On to `CO[C@H]1/C=C(/C)CCC[C@H](C)[C@H](O)[C@@H](C)C(=O)C(C)(C)[C@@H](O)CC(=O)O[C@@H]1/C(C)=C/c1csc(C)n1`, for which the GI50 was 0.0436 µM and the TGI is greater than 100 µM.
As to `OCCc1ccsc1-c1sc(-c2cc(CCO)c(-c3sccc3CCO)s2)cc1CCO`, the TGI turned out to be 32.4 µM.
Still for that read-out and setting: next, `CCOC(=O)c1ccc(NCC#CCN2CCOCC2)cc1`: greater than 100 µM.
The same measure, in the same setting: next, `COc1ccc(-c2nc(SCC(=O)N/N=C/c3ccc(N(C)C)cc3)[nH]c2-c2ccc(OC)cc2)cc1`: greater than 100 µM.
Same read-out and setting: next, `CC(=N/N=C/c1ccccn1)/C(C)=N/N=C(C)/C(C)=N/N=C(C)/C(C)=N/N=C(C)/C(C)=N\N=C\c1ccccn1`: greater than 100 µM.
`COc1ccc(C2=N/C(=C\c3ccccc3)C(=O)O2)cc1` returned a TGI greater than 100 µM.
Same read-out and setting: as for `COP(=O)(/C=C/c1cc(C(=O)OCc2ccccc2)n(S(=O)(=O)c2ccccc2)c1)OC`, the figure is greater than 100 µM; as for `Cc1cc(C(=O)CCCCOc2ccc(C3=NCCO3)cc2)c(C)n1C`, greater than 100 µM.
As for `COc1cc(/C=C/C(=O)CC(=O)/C=C/c2ccc(OC(=O)CCCCC3CCSS3)c(OC)c2)ccc1OC(=O)CCCCC1CCSS1` (stereo not drawn), the TGI is greater than 100 µM.
`[O-][n+]1ccccc1Sc1nc(Sc2cccc[n+]2[O-])nc(Sc2cccc[n+]2[O-])n1` yielded a TGI of 3.61 µM.
Take `CCCCC(C(=O)NCCNC(=O)CCC(=O)N(C)O)C(=O)NCCNC(=O)CCC(=O)N(C)O`: the TGI was greater than 100 µM.
`CC1(C)C2CCC1(C)[C@H](n1c(=O)n([C@@H]3CC4CCC3(C)C4(C)C)c(=O)n([C@@H]3CC4CCC3(C)C4(C)C)c1=O)C2`: the TGI is greater than 100 µM.

Another assay relates to RPMI-8226 leukemia. Kind of assay: NCI anticancer screen, dose series, 48 h.
`CCOC(=O)Cn1c(=O)c2nc(SC)sc2n(-c2ccccc2)c1=O` displayed a TGI greater than 100 µM.
Still for that read-out and setting: next, `O=c1c2sc(=S)n(-c3ccc(F)cc3)c2ncn1/N=C/c1ccc(F)cc1F`: greater than 100 µM.
The same measure, in the same setting: next, `COc1ccc2c(C)cc(=O)oc2c1OC`: greater than 100 µM; `CC1CCC(C(=O)O)(C(Br)C(=O)O)CC1` (stereo not drawn): greater than 100 µM; `Cc1cc(N(CCOS(C)(=O)=O)CCOS(C)(=O)=O)ccc1C=O`: greater than 100 µM.
The same measure, in the same setting: next, `CCCCCCOc1ccc(C(=O)NOC)cc1`: greater than 100 µM.
For the compound `CCOP(=O)(OCC)C(c1ccc(F)cc1)N(C(=O)NC(F)(F)F)c1ccc(OC)cc1` (stereo not drawn), the TGI is greater than 100 µM.
Same read-out and setting: next, `CCOC(=O)c1c(C)nc2c3ccccc3c(C#N)c(C)n12`: greater than 100 µM.
Turning to `CO[C@H]1/C=C(/C)CCC[C@H](C)[C@H](O)[C@@H](C)C(=O)C(C)(C)[C@@H](O)CC(=O)O[C@@H]1/C(C)=C/c1csc(C)n1`, the GI50 is 0.0705 µM and the TGI is greater than 100 µM.
In turn, `OCCc1ccsc1-c1sc(-c2cc(CCO)c(-c3sccc3CCO)s2)cc1CCO` returned a TGI greater than 100 µM.
Compound `CCOC(=O)c1ccc(NCC#CCN2CCOCC2)cc1` returned a TGI greater than 100 µM.
`CC(=N/N=C/c1ccccn1)/C(C)=N/N=C(C)/C(C)=N/N=C(C)/C(C)=N/N=C(C)/C(C)=N\N=C\c1ccccn1`: the TGI is greater than 100 µM.
Consider `COc1ccc(C2=N/C(=C\c3ccccc3)C(=O)O2)cc1`, for which the TGI was greater than 100 µM.
On the same count and under the same terms, as for `CCN(CC)CCN(C(=Nc1ccccc1)N1CCOCC1)c1ccccc1`, the figure is greater than 100 µM; as for `CCNC(=O)Cc1nc2c(N)ncnc2n1C1OC(CO)C(O)C1O` (stereo not drawn), greater than 100 µM.
Regarding `Cc1cc(C(=O)CCCCOc2ccc(C3=NCCO3)cc2)c(C)n1C`, the TGI came to 62.4 µM.
The same measure, in the same setting: as for `COc1cc(/C=C/C(=O)CC(=O)/C=C/c2ccc(OC(=O)CCCCC3CCSS3)c(OC)c2)ccc1OC(=O)CCCCC1CCSS1` (stereo not drawn), the figure is greater than 100 µM.
`CCCCC(C(=O)NCCNC(=O)CCC(=O)N(C)O)C(=O)NCCNC(=O)CCC(=O)N(C)O` returned a TGI greater than 100 µM.
On the same count and under the same terms, next, `CC1(C)C2CCC1(C)[C@H](n1c(=O)n([C@@H]3CC4CCC3(C)C4(C)C)c(=O)n([C@@H]3CC4CCC3(C)C4(C)C)c1=O)C2`: greater than 100 µM; `CSc1nsc(-c2ccccc2)[s+]1`: greater than 100 µM.

Another assay concerns OVCAR-8 ovarian. Kind of assay: NCI anticancer screen, dose series, 48 h.
For `CCOC(=O)Cn1c(=O)c2nc(SC)sc2n(-c2ccccc2)c1=O`, the TGI was greater than 100 µM.
On the same count and under the same terms, next, `O=c1c2sc(=S)n(-c3ccc(F)cc3)c2ncn1/N=C/c1ccc(F)cc1F`: 44.9 µM; `COc1ccc2c(C)cc(=O)oc2c1OC`: greater than 100 µM.
On to `CC1CCC(C(=O)O)(C(Br)C(=O)O)CC1` (stereo not drawn), for which the TGI was greater than 100 µM.
On the same count and under the same terms, as for `Cc1cc(N(CCOS(C)(=O)=O)CCOS(C)(=O)=O)ccc1C=O`, the figure is greater than 100 µM; as for `CCCCCCOc1ccc(C(=O)NOC)cc1`, greater than 100 µM; as for `NS(=O)(=O)c1cc(Cl)c(NC(=S)NC(=O)Nc2ccc(Cl)c(Cl)c2)c(Cl)c1`, greater than 100 µM.
The same measure, in the same setting: next, `CCOP(=O)(OCC)C(c1ccc(F)cc1)N(C(=O)NC(F)(F)F)c1ccc(OC)cc1` (stereo not drawn): greater than 100 µM; `CCOC(=O)c1c(C)nc2c3ccccc3c(C#N)c(C)n12`: greater than 100 µM; `O=C(O)CCC(=O)OC1N=C(c2ccccc2Cl)c2cc([N+](=O)[O-])ccc2NC1=O` (stereo not drawn): greater than 100 µM.
For `CO[C@H]1/C=C(/C)CCC[C@H](C)[C@H](O)[C@@H](C)C(=O)C(C)(C)[C@@H](O)CC(=O)O[C@@H]1/C(C)=C/c1csc(C)n1`, the GI50 was 0.0277 µM and the TGI is greater than 100 µM.
`OCCc1ccsc1-c1sc(-c2cc(CCO)c(-c3sccc3CCO)s2)cc1CCO` gave a TGI of 29.5 µM.
On the same count and under the same terms, as for `COc1ccc(-c2nc(SCC(=O)N/N=C/c3ccc(N(C)C)cc3)[nH]c2-c2ccc(OC)cc2)cc1`, the figure is greater than 100 µM; as for `CS(=O)(=O)OCC(CCl)(CCl)CCl`, greater than 100 µM; as for `CC(=N/N=C/c1ccccn1)/C(C)=N/N=C(C)/C(C)=N/N=C(C)/C(C)=N/N=C(C)/C(C)=N\N=C\c1ccccn1`, greater than 100 µM.
On the same count and under the same terms, next, `COc1ccc(C2=N/C(=C\c3ccccc3)C(=O)O2)cc1`: greater than 100 µM; `CCN(CC)CCN(C(=Nc1ccccc1)N1CCOCC1)c1ccccc1`: greater than 100 µM.
The same measure, in the same setting: next, `COP(=O)(/C=C/c1cc(C(=O)OCc2ccccc2)n(S(=O)(=O)c2ccccc2)c1)OC`: greater than 100 µM; `CCNC(=O)Cc1nc2c(N)ncnc2n1C1OC(CO)C(O)C1O` (stereo not drawn): greater than 100 µM; `Cc1cc(C(=O)CCCCOc2ccc(C3=NCCO3)cc2)c(C)n1C`: greater than 100 µM.
On to `COc1cc(/C=C/C(=O)CC(=O)/C=C/c2ccc(OC(=O)CCCCC3CCSS3)c(OC)c2)ccc1OC(=O)CCCCC1CCSS1` (stereo not drawn), for which the TGI is greater than 100 µM.
The same measure, in the same setting: as for `[O-][n+]1ccccc1Sc1nc(Sc2cccc[n+]2[O-])nc(Sc2cccc[n+]2[O-])n1`, the figure is 1.99 µM; as for `CCCCC(C(=O)NCCNC(=O)CCC(=O)N(C)O)C(=O)NCCNC(=O)CCC(=O)N(C)O`, greater than 100 µM; as for `CC1(C)C2CCC1(C)[C@H](n1c(=O)n([C@@H]3CC4CCC3(C)C4(C)C)c(=O)n([C@@H]3CC4CCC3(C)C4(C)C)c1=O)C2`, greater than 100 µM.
Same read-out and setting: next, `CSc1nsc(-c2ccccc2)[s+]1`: greater than 100 µM.
